Laboratory results: PubChem BioAssay AID1963861 (Molecular Pharmacology Branch, DTP, NCI, 2024)
Several values for one entry are separate records, joined by “and”; a condition that tells them apart may be missing. Identical values can stand only once.

Tested on: 885724-159-R-J1-PDC KRAS PDC multicell spheroid viability
Assay: Anticancer human tumor 885724-159-R-J1-PDC patient-derived pancreatic adenocarcinoma cell line growth inhibition [KRAS2]
Conditions: for viability, T/C: stronger effect = lower value
Excerpt: Multicellular complex tumor spheroid response to RAS pathway inhibitors in combination with a targeted agents in patient-derived cell lines with oncogenic KRAS variants from multiple cancer types
A high-throughput screen of multi-cell type tumor spheroids was designed to identify active combinations of targeted small molecules and KRAS pathway inhibitors. Complex spheroids include a stromal component modeled by human endothelial cells (HUVEC) and fibroblasts modeled by human mesenchymal stem cells (MSCs). The concentration ranges selected for each drug and investigational agent were based upon clinically achievable concentrations if the clinical Cmax of the agent was known.
Compounds. The drugs and investigational agents: BI-3406 (NSC825286), BAY-293 (NSC824723), batoprotafib (TNO155; NSC825523), sotorasib (AMG 510; NSC818433), MRTX1257 (NSC819558), elimusertib (BAY 1895344; NSC800525), molibresib (GSK525762; NSC774829), temuterkib (LY3214996; NSC803410), venetoclax (NSC766270), alisertib (NSC759677), olaparib (NSC753686), talazoparib (NSC767125), erdafitinib (NSC781556), ipatasertib (NSC767898), cabozantinib (NSC761068), nintedanib (NSC756659), abemaciclib (NSC768073), docetaxel (NSC628503), trametinib (NSC758246), and sapanisertib (NSC764658) were obtained from the National Cancer Institute (NCI) Developmental Therapeutics Program Chemical Repository. The FDA-approved anticancer drug set is available from the Developmental Therapeutics Program. […] The stock solutions were prepared in dimethyl sulfoxide (DMSO, Sigma-Aldrich, St. Louis, MO, cat. D2650) at 800-fold the tested concentration and stored at -70 degrees C prior to their use. All drugs and investigational agents were tested over a range starting from a high concentration at or near the clinical Cmax and decreasing in half-log increments. If the clinical Cmax for an agent had not been determined, the highest concentration tested was 10 microM.
Cell Culture. All cells were maintained in an incubator at 37 degrees C and 5% CO2 with 95% humidity. The PDC lines were cultured according to standard operating procedures established by the NCI PDMR (https://pdmr.cancer.gov/sops/default.htm). Briefly, all PDCs were thawed and cultured in Matrigel-coated flasks prepared with a working solution of 1X Ham's F-12 nutrient mix, without supplementation (Invitrogen, Waltham, MA, cat. 11765054), 100 U/mL penicillin-streptomycin (Invitrogen, cat. 15140122), and 2.5% Matrigel (Corning Inc., Corning, NY, cat. 354248) for the first three passages. All PDCs were cultured in complete DMEM/F-12 media containing advanced DMEM/F-12 (Invitrogen, cat. 12634028), 4.9% defined fetal bovine serum, heat inactivated (HyClone Laboratories Inc., Logan, UT, cat. SH30070.03HI), 389 ng/mL hydrocortisone (Sigma-Aldrich, cat. H4001), 9.7 ng/mL human EGF recombinant protein (Invitrogen, cat. PHG0313), 23.4 microg/mL adenine (Sigma-Aldrich, cat. A2786), 97.3 U/mL penicillin-streptomycin (Invitrogen, cat. 15140122), 1.9 mM L-glutamine (Invitrogen, cat. 25030081), and 9.7 microM Y-27632 dihydrochloride (Tocris Bioscience, Bristol, United Kingdom, cat. 1254). The PDCs were cultured in complete DMEM/F12 media without 9.7 microM Y-27632 dihydrochloride for at least two passages prior to the screen. The established cell line HOP-62 was cultured in RPMI 1640 medium, HEPES (Invitrogen, cat. 22400105) with 10% defined fetal bovine serum (HyClone Laboratories Inc., cat. SH30070.03) and 2 mM L-glutamine (Invitrogen, cat. 25030081). The pooled donor HUVEC were cultured in endothelial cell growth medium 2 (PromoCell, Heidelberg, Germany, cat. C-22011) and the hMSC were cultured in mesenchymal stem cell growth medium 2 (PromoCell, cat. C-28009). For all experiments, HUVEC and hMSC were used at passages </=5, while the malignant cell lines were used at passages </=15. […]

[1] = compound alone, run of 08/19/2021
[2] = compound alone, run of 08/26/2021
[3] = compound alone, run of 09/02/2021
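Note: spheroids exposed to agents for 7 days before readout.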

| SMILES | viability, T/C (compound 0.0316 µM) | viability, T/C (compound 0.316 µM) | IC50 [1] | IC50 [2] | IC50 [3] | viability, T/C (compound 0.0001 µM) | viability, T/C (compound 0.000316 µM) | viability, T/C (compound 0.001 µM) | viability, T/C (compound 0.00316 µM) | viability, T/C (compound 0.01 µM) | IC50 (curve of compound) | viability, T/C (compound 0.1 µM) | viability, T/C (compound 1 µM) | viability, T/C (compound 3.16 µM) | viability, T/C (compound 10 µM) |
| --- | --- | --- | --- | --- | --- | --- | --- | --- | --- | --- | --- | --- | --- | --- | --- |
| C=CC(=O)N1CCN(c2nc(OCC3CCCN3C)nc3c2CCN(c2cccc4cccc(C)c24)C3)CC1CC#N (stereo not drawn) | 103% [middle of 17 runs] | 94.9% [middle of 17 runs] | > 3.16 µM and 2.89 µM and 2.93 µM | > 3.16 µM and 3.06 µM | > 3.16 µM and 2.96 µM and 2.89 µM | – | – | – | – | – | – | – | – | – | – |
| CC(=O)Nc1cccc(-n2c(=O)n(C3CC3)c(=O)c3c(Nc4ccc(I)cc4F)n(C)c(=O)c(C)c32)c1 | 18.6% [middle of 5 runs] | – | – | – | – | 89.6% [middle of 5 runs] | 68.2% [middle of 5 runs] | 49.6% [middle of 5 runs] | 36.5% [middle of 5 runs] | 25.7% [middle of 5 runs] | 0.966 nM [middle of 5 runs] | – | – | – | – |
| CC(=O)OC12COC1CC(O)C1(C)C(=O)C(O)C3=C(C)C(OC(=O)C(O)C(NC(=O)OC(C)(C)C)c4ccccc4)CC(O)(C(OC(=O)c4ccccc4)C21)C3(C)C (stereo not drawn) | 93.2% [middle of 5 runs] | – | – | – | – | – | – | – | – | 88.4% [middle of 5 runs] | > 3.16 µM | 102% [middle of 5 runs] | 112% [middle of 5 runs] | – | – |
| CC(C)NCC(C(=O)N1CCN(c2ncnc3c2C(C)CC3O)CC1)c1ccc(Cl)cc1 (stereo not drawn) | 95.8% [middle of 5 runs] | 75.3% [middle of 5 runs] | – | – | – | – | – | – | – | – | > 10 µM | 83.2% [middle of 5 runs] | 75.9% [middle of 5 runs] | 84.6% [middle of 5 runs] | 56.9% [middle of 5 runs] |
| CC(C)n1nc(-c2ccc3oc(N)nc3c2)c2c(N)ncnc21 | 51% [middle of 5 runs] | – | – | – | – | – | 95.6% [middle of 5 runs] | 74.4% [middle of 5 runs] | 65.9% [middle of 5 runs] | 61.9% [middle of 5 runs] | – | 46.5% [middle of 5 runs] | – | – | – |
| CC1(C)CCC(CN2CCN(c3ccc(C(=O)NS(=O)(=O)c4ccc(NCC5CCOCC5)c([N+](=O)[O-])c4)c(Oc4cnc5[nH]ccc5c4)c3)CC2)=C(c2ccc(Cl)cc2)C1 | 100% [middle of 5 runs] | 100% [middle of 5 runs] | – | – | – | – | – | – | – | – | 9.05 µM [middle of 5 runs] | 103% [middle of 5 runs] | 97.1% [middle of 5 runs] | – | – |
| CC1COCCN1c1cc(-c2ccnn2C)c2ccnc(-c3ccn[nH]3)c2n1 (stereo not drawn) | 90.6% [middle of 5 runs] | 62.3% [middle of 5 runs] | – | – | – | – | – | – | – | 107% [middle of 5 runs] | > 3.16 µM | 69.9% [middle of 5 runs] | 56.6% [middle of 5 runs] | 58.2% [middle of 5 runs] | – |
| CC1OCC2(CCN(c3cnc(Sc4ccnc(N)c4Cl)c(N)n3)CC2)C1N (stereo not drawn) | 99.7% and 101% and 102% | – | > 10 µM | > 10 µM | > 10 µM | – | – | – | – | – | > 10 µM | 92.4% [middle of 19 runs] | – | 71.4% [middle of 20 runs] | – |
| CCN1CCN(Cc2ccc(Nc3ncc(F)c(-c4cc(F)c5nc(C)n(C(C)C)c5c4)n3)nc2)CC1 | 89.9% [middle of 5 runs] | 92.5% [middle of 5 runs] | – | – | – | – | – | – | 108% (2×) and 101% and 103% (2×) | 100% [middle of 5 runs] | > 1 µM | 88.7% [middle of 5 runs] | 94% [middle of 5 runs] | – | – |
| CCNC(=O)CC1N=C(c2ccc(Cl)cc2)c2cc(OC)ccc2-n2c(C)nnc21 (stereo not drawn) | 112% [middle of 5 runs] | 78.4% [middle of 5 runs] | – | – | – | – | – | – | – | – | > 10 µM and 8.28 µM | 102% [middle of 5 runs] | 66.7% [middle of 5 runs] | 59.7% [middle of 5 runs] | 51.8% [middle of 5 runs] |
| CN(C)C/C=C/C(=O)Nc1cc2c(Nc3ccc(F)c(Cl)c3)ncnc2cc1O[C@H]1CCOC1 | 81.5% [middle of 5 runs] | – | – | – | – | – | 107% [middle of 5 runs] | 104% [middle of 5 runs] | – | 95.3% [middle of 5 runs] | > 0.1 µM | 77.5% [middle of 5 runs] | – | – | – |
| COC(=O)c1ccc2c(C(=Nc3ccc(N(C)C(=O)CN4CCN(C)CC4)cc3)c3ccccc3)c(O)[nH]c2c1 | 99.8% [middle of 5 runs] | 98.2% [middle of 5 runs] | – | – | – | – | – | – | – | – | 2.26 µM [middle of 5 runs] | 103% [middle of 5 runs] | 103% [middle of 5 runs] | 29.4% [middle of 5 runs] | 0.61% [middle of 5 runs] |
| COc1cc(Nc2ncc3c(n2)-c2ccc(Cl)cc2C(c2c(F)cccc2OC)=NC3)ccc1C(=O)O | 93.8% [middle of 5 runs] | 88.7% [middle of 5 runs] | – | – | – | – | – | – | – | – | > 10 µM | 89.1% [middle of 5 runs] | 90% [middle of 5 runs] | 96.2% [middle of 5 runs] | 98.4% [middle of 5 runs] |
| COc1cc(OC)cc(N(CCNC(C)C)c2ccc3ncc(-c4cnn(C)c4)nc3c2)c1 | 103% [middle of 5 runs] | 109% [middle of 5 runs] | – | – | – | – | – | – | – | – | 6.96 µM [middle of 5 runs] | 104% [middle of 5 runs] | 121% [middle of 5 runs] | 142% [middle of 5 runs] | 16.8% [middle of 5 runs] |
| COc1cc2nccc(Oc3ccc(NC(=O)C4(C(=O)Nc5ccc(F)cc5)CC4)cc3)c2cc1OC | 111% [middle of 5 runs] | 110% [middle of 5 runs] | – | – | – | – | – | – | – | – | > 10 µM | 108% [middle of 5 runs] | 102% [middle of 5 runs] | 74.1% [middle of 5 runs] | 70.5% [middle of 5 runs] |
| Cn1nccc1Nc1nccc(-c2cc3c(s2)C(C)(C)N(CCN2CCOCC2)C3=O)n1 | 99.9% and 99.7% | 59.1% and 65.2% | – | – | – | – | – | – | – | – | 0.665 µM and 0.799 µM | 86.3% and 84.2% | 45.5% and 45.8% | 35.7% and 37.9% | 31.1% and 35.9% |
| Cn1ncnc1[C@H]1c2n[nH]c(=O)c3cc(F)cc(c23)N[C@@H]1c1ccc(F)cc1 | 96.2% [middle of 5 runs] | – | – | – | – | – | 102% [middle of 5 runs] | 102% [middle of 5 runs] | 97.3% [middle of 5 runs] | 98.2% [middle of 5 runs] | > 0.1 µM | 91% [middle of 5 runs] | – | – | – |
| O=C(c1cc(Cc2n[nH]c(=O)c3ccccc23)ccc1F)N1CCN(C(=O)C2CC2)CC1 | 104% [middle of 5 runs] | 105% [middle of 5 runs] | – | – | – | – | – | – | – | – | > 10 µM | 106% [middle of 5 runs] | 106% [middle of 5 runs] | 101% [middle of 5 runs] | 82.5% [middle of 5 runs] |
